This test deals with T1, δ-opioid receptor (DOR) (Mus musculus, UniProt P32300).
T1 construct: gene Oprd1; endogenous receptor on cholinergic interneurons in mouse brain slices
In words: cell-attached recording of firing inhibition reversed by SDM25N; internalization of labeled receptors. The format is cell-based.

The term inhibition denotes the relative decrease from the control value, in per cent. Low values mean a weak effect, high ones a strong effect.

T1 sequence (P32300 whole entry): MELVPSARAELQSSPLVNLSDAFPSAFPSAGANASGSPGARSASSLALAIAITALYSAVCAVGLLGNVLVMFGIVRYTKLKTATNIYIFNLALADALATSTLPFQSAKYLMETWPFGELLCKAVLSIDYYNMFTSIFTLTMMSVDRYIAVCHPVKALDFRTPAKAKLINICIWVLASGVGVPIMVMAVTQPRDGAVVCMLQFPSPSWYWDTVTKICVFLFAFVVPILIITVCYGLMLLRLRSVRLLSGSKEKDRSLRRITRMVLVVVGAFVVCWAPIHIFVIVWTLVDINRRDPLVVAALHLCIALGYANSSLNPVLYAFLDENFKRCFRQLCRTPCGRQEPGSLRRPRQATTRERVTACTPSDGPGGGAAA

Consider `CC(C)[C@H](NC(=O)[C@H](CCC(=O)O)NC(=O)[C@H](Cc1ccccc1)NC(=O)[C@@H](C)NC(=O)[C@@H](N)Cc1ccc(O)cc1)C(=O)N[C@H](C(=O)NCC(N)=O)C(C)C` [deltorphin II], for which 1 µM produced 96.6 ± 2.7% inhibition.
